According to the kinase profiling compilation of Christmann-Franck et al. (2016):

Assays:
Test in all cases: KINOMEscan competition binding
Settings in all cases: compound 10.0 µM
ACVRL1 (human) = ACVRL1 (human) (UniProt P37023)
BMPR1A (human) = BMPR1A (human) (UniProt P36894)
BRSK2 (human) = BRSK2 (human) (UniProt Q8IWQ3)
CASK (human) = CASK (human) (UniProt O14936)
CDC42BPB (human) = CDC42BPB (human) (UniProt Q9Y5S2)
CDK3 (human) = CDK3 (human) (UniProt Q00526)
CDK7 (human) = CDK7 (human) (UniProt P50613)
CDK8 (human) = CDK8 (human) (UniProt P49336)
DDR1 (human) = DDR1 (human) (UniProt Q08345)
DYRK2 (human) = DYRK2 (human) (UniProt Q92630)
EPHA6 (human) = EPHA6 (human) (UniProt Q9UF33)
ERN1 (human) = ERN1 (human) (UniProt O75460)
Sequence of ERN1 (human) (O75460 whole entry, looked up): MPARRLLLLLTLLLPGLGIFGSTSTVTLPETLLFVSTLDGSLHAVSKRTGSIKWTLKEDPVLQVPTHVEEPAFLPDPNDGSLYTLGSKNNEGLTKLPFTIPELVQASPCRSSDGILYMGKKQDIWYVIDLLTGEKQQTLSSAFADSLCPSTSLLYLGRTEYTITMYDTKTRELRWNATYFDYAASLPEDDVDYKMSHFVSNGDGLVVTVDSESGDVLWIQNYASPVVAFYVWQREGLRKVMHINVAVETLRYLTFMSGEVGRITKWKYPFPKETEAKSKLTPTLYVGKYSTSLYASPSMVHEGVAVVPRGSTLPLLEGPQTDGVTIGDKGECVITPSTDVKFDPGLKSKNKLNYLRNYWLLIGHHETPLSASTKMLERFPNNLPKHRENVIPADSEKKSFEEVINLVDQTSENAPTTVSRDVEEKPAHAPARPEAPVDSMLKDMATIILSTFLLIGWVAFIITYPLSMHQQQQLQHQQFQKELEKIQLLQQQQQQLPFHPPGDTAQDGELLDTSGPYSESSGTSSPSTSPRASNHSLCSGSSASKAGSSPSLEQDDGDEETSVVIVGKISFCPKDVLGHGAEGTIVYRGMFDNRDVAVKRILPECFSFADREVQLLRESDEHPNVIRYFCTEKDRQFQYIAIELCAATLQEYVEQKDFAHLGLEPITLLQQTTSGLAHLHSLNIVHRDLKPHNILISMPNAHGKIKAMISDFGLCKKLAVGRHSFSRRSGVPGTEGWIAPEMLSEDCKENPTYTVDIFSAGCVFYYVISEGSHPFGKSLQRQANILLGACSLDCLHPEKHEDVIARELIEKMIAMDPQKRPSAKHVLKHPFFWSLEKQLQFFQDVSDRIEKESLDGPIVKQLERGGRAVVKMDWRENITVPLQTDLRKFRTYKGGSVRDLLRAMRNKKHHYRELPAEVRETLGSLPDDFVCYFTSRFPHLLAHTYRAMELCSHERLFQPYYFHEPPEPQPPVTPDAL

FGFR3 (human) = FGFR3 (human) (UniProt P22607)
Sequence of FGFR3 (human) (P22607 whole entry, looked up): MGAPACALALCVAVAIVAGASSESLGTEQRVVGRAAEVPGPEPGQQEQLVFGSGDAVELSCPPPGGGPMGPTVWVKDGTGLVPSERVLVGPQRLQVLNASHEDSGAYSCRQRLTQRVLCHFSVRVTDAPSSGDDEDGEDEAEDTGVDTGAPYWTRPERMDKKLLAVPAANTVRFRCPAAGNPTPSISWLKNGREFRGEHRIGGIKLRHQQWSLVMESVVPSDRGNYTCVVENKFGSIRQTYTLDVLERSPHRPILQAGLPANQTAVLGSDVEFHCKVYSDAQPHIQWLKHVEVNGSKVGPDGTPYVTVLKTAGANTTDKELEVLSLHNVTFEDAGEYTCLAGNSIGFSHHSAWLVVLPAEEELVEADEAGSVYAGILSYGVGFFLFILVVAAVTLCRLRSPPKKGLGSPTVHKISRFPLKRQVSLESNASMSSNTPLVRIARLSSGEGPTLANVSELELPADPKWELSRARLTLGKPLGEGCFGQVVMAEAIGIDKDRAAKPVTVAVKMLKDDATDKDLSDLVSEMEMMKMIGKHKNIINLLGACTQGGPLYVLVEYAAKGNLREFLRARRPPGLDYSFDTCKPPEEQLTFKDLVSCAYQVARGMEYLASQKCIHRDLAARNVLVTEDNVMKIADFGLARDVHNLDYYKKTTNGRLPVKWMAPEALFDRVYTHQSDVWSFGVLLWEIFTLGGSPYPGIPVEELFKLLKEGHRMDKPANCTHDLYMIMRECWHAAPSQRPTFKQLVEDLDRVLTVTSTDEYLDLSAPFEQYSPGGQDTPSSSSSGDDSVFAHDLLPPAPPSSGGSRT

FYN (human) = FYN (human) (UniProt P06241)
GAK (human) = GAK (human) (UniProt O14976)
HIPK1 (human) = HIPK1 (human) (UniProt Q86Z02)
ITK (human) = ITK (human) (UniProt Q08881)
Sequence of ITK (human) (Q08881 whole entry, looked up): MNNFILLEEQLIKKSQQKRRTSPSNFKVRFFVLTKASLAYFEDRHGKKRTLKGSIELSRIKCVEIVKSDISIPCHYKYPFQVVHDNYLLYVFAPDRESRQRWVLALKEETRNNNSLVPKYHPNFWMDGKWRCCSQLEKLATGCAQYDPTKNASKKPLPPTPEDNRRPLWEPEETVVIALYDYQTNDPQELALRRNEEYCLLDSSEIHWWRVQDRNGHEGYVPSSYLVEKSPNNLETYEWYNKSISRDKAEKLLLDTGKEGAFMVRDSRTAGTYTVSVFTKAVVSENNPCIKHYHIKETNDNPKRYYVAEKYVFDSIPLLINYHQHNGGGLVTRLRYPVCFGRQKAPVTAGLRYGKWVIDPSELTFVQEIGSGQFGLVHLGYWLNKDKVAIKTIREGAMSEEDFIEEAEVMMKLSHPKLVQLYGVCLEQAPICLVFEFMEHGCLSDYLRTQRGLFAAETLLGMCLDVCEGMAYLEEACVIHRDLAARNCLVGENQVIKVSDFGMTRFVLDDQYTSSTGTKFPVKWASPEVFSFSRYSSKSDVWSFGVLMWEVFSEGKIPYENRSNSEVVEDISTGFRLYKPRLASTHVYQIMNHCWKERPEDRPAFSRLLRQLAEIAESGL

KIT (human) = KIT (human) (UniProt P10721)
LTK (human) = LTK (human) (UniProt P29376)
LYN (human) = LYN (human) (UniProt P07948)
MAP4K3 (human) = MAP4K3 (human) (UniProt Q8IVH8)
Sequence of MAP4K3 (human) (Q8IVH8 whole entry, looked up): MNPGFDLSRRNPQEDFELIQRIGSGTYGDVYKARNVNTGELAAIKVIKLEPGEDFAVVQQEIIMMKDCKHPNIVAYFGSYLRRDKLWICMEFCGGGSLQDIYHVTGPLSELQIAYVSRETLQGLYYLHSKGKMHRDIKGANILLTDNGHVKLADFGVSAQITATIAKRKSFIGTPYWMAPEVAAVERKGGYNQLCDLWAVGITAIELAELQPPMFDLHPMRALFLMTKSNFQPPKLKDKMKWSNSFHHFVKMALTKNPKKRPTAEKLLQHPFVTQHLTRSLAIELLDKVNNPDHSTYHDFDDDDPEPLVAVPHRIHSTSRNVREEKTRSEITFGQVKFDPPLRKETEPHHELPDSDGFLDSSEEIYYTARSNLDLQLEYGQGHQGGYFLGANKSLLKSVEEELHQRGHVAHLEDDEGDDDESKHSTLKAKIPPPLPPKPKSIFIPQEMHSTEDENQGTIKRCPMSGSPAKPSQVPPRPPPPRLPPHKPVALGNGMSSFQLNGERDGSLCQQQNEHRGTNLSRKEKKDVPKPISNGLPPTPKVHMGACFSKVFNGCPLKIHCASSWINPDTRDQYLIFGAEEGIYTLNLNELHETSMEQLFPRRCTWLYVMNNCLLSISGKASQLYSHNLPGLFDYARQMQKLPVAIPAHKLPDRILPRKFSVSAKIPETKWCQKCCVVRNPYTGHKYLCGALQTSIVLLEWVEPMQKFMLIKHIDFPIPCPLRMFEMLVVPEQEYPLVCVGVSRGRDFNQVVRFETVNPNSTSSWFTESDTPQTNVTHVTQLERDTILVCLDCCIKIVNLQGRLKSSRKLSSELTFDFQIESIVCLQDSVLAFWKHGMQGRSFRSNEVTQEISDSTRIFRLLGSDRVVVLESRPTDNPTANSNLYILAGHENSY

MAPK9 (human) = MAPK9 (human) (UniProt P45984)
MAPKAPK2 (human) = MAPKAPK2 (human) (UniProt P49137)
Sequence of MAPKAPK2 (human) (P49137 whole entry, looked up): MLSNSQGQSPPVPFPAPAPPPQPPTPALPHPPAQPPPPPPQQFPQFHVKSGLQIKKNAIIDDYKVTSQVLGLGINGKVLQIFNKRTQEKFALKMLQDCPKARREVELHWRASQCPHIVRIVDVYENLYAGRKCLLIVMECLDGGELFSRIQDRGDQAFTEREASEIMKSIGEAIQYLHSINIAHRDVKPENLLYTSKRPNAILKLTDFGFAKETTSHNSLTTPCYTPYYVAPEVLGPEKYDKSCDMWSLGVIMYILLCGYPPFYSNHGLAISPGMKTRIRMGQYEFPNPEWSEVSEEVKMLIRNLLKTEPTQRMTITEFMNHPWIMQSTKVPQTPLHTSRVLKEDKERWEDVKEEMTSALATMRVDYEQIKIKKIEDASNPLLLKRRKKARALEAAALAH

MARK2 (human) = MARK2 (human) (UniProt Q7KZI7)
Sequence of MARK2 (human) (Q7KZI7 whole entry, looked up): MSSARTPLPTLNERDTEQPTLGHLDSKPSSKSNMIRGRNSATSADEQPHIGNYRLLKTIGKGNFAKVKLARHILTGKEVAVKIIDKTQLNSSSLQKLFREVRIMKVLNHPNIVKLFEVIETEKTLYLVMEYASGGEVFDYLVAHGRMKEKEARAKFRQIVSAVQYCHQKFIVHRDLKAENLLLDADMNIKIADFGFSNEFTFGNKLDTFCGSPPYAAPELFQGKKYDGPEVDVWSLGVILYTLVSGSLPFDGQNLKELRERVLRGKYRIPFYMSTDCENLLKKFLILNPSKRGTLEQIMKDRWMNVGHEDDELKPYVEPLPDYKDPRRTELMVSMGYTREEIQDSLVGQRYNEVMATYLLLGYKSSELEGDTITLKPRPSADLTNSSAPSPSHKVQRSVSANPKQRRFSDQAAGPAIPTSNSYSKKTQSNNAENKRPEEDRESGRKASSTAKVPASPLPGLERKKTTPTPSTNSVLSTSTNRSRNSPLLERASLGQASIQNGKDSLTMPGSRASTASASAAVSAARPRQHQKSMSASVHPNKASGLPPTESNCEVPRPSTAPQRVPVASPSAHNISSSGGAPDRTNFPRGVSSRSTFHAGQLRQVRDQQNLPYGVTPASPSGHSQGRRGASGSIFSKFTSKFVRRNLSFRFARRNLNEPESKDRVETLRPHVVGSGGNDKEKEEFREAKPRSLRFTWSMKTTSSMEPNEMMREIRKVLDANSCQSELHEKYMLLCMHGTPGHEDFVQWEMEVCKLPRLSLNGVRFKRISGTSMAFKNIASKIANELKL

MET (human) = MET (human) (UniProt P08581)
MKNK1 (human) = MKNK1 (human) (UniProt Q9BUB5)
Sequence of MKNK1 (human) (Q9BUB5 whole entry, looked up): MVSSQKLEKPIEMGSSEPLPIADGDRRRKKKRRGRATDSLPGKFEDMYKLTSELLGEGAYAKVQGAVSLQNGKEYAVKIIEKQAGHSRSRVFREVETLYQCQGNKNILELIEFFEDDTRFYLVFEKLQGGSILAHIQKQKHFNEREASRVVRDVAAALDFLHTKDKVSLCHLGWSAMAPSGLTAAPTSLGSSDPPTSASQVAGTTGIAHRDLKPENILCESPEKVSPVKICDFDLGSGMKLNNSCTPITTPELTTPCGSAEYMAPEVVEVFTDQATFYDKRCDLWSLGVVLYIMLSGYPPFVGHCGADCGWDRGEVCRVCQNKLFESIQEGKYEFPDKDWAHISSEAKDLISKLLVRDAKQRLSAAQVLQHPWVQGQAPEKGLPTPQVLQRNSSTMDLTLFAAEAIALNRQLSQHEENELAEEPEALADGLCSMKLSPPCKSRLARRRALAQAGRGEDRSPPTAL

NEK7 (human) = NEK7 (human) (UniProt Q8TDX7)
NLK (human) = NLK (human) (UniProt Q9UBE8)
NUAK2 (human) = NUAK2 (human) (UniProt Q9H093)
PIM1 (human) = PIM1 (human) (UniProt P11309)
PIP4K2B (human) = PIP4K2B (human) (UniProt P78356)
PRKACA (human) = PRKACA (human) (UniProt P17612)
PRPF4B (human) = PRPF4B (human) (UniProt Q13523)
RIOK3 (human) = RIOK3 (human) (UniProt O14730)
RPS6KA1 KD1 (human) = RPS6KA1 KD1 (human) (UniProt Q15418)
RPS6KB1 (human) = RPS6KB1 (human) (UniProt P23443)
[1] = molecular target: TYK2 JH2 pseudokinase (human) (UniProt P29597)
ULK3 (human) = ULK3 (human) (UniProt Q6PHR2)
BTK (human) = BTK (human) (UniProt Q06187)

Compound: CCc1nc(-c2cccc(C)c2)c(-c2ccnc(NC(=O)c3ccccc3)c2)s1
- kinase still bound, per cent of control (ACVRL1 (human)): 85%
- kinase still bound, per cent of control (BMPR1A (human)): 14%
- kinase still bound, per cent of control (BRSK2 (human)): 95%
- kinase still bound, per cent of control (CASK (human)): 100%
- kinase still bound, per cent of control (CDC42BPB (human)): 63%
- kinase still bound, per cent of control (CDK3 (human)): 100%
- kinase still bound, per cent of control (CDK7 (human)): 100%
- kinase still bound, per cent of control (CDK8 (human)): 88%
- kinase still bound, per cent of control (DDR1 (human)): 2.8%
- kinase still bound, per cent of control (DYRK2 (human)): 99%
- kinase still bound, per cent of control (EPHA6 (human)): 47%
- kinase still bound, per cent of control (ERN1 (human)): 100%
- kinase still bound, per cent of control (FGFR3 (human)): 86%
- kinase still bound, per cent of control (FYN (human)): 45%
- kinase still bound, per cent of control (GAK (human)): 4.4%
- kinase still bound, per cent of control (HIPK1 (human)): 94%
- kinase still bound, per cent of control (ITK (human)): 100%
- kinase still bound, per cent of control (KIT (human)): 45%
- kinase still bound, per cent of control (LTK (human)): 26%
- kinase still bound, per cent of control (LYN (human)): 54%
- kinase still bound, per cent of control (MAP4K3 (human)): 80%
- kinase still bound, per cent of control (MAPK9 (human)): 0%
- kinase still bound, per cent of control (MAPKAPK2 (human)): 100%
- kinase still bound, per cent of control (MARK2 (human)): 100%
- kinase still bound, per cent of control (MET (human)): 94%
- kinase still bound, per cent of control (MKNK1 (human)): 100%
- kinase still bound, per cent of control (NEK7 (human)): 100%
- kinase still bound, per cent of control (NLK (human)): 4%
- kinase still bound, per cent of control (NUAK2 (human)): 100%
- kinase still bound, per cent of control (PIM1 (human)): 87%
- kinase still bound, per cent of control (PIP4K2B (human)): 93%
- kinase still bound, per cent of control (PRKACA (human)): 85%
- kinase still bound, per cent of control (PRPF4B (human)): 80%
- kinase still bound, per cent of control (RIOK3 (human)): 100%
- kinase still bound, per cent of control (RPS6KA1 KD1 (human)): 89%
- kinase still bound, per cent of control (RPS6KB1 (human)): 90%
- kinase still bound, per cent of control [1]: 57%
- kinase still bound, per cent of control (ULK3 (human)): 88%

Compound: CCN(CCO)CCCOc1ccc2c(Nc3cc(CC(=O)Nc4cccc(F)c4)[nH]n3)ncnc2c1
- kinase still bound, per cent of control (ACVRL1 (human)): 97%
- kinase still bound, per cent of control (BMPR1A (human)): 29%
- kinase still bound, per cent of control (BRSK2 (human)): 100%
- kinase still bound, per cent of control (BTK (human)): 7.2%
- kinase still bound, per cent of control (CASK (human)): 88%
- kinase still bound, per cent of control (CDC42BPB (human)): 100%
- kinase still bound, per cent of control (CDK3 (human)): 95%
- kinase still bound, per cent of control (CDK7 (human)): 15%
- kinase still bound, per cent of control (CDK8 (human)): 75%
- kinase still bound, per cent of control (DDR1 (human)): 12%
- kinase still bound, per cent of control (DYRK2 (human)): 73%
- kinase still bound, per cent of control (EPHA6 (human)): 69%
- kinase still bound, per cent of control (ERN1 (human)): 67%
- kinase still bound, per cent of control (FGFR3 (human)): 92%
- kinase still bound, per cent of control (GAK (human)): 21%
- kinase still bound, per cent of control (HIPK1 (human)): 40%
- kinase still bound, per cent of control (ITK (human)): 96%
- kinase still bound, per cent of control (KIT (human)): 0%
- kinase still bound, per cent of control (LTK (human)): 17%
- kinase still bound, per cent of control (LYN (human)): 18%
- kinase still bound, per cent of control (MAP4K3 (human)): 51%
- kinase still bound, per cent of control (MAPK9 (human)): 46%
- kinase still bound, per cent of control (MAPKAPK2 (human)): 100%
- kinase still bound, per cent of control (MARK2 (human)): 80%
- kinase still bound, per cent of control (MET (human)): 46%
- kinase still bound, per cent of control (MKNK1 (human)): 68%
- kinase still bound, per cent of control (NEK7 (human)): 94%
- kinase still bound, per cent of control (NLK (human)): 100%
- kinase still bound, per cent of control (NUAK2 (human)): 54%
- kinase still bound, per cent of control (PIM1 (human)): 100%
- kinase still bound, per cent of control (PIP4K2B (human)): 100%
- kinase still bound, per cent of control (PRKACA (human)): 100%
- kinase still bound, per cent of control (PRPF4B (human)): 67%
- kinase still bound, per cent of control (RIOK3 (human)): 100%
- kinase still bound, per cent of control (RPS6KA1 KD1 (human)): 83%
- kinase still bound, per cent of control (RPS6KB1 (human)): 13%
- kinase still bound, per cent of control [1]: 98%
- kinase still bound, per cent of control (ULK3 (human)): 69%
